Source: US20250195521A1 (Revolution Medicines, Inc., priority 2020, published 2025)
Like-named read-outs stand apart in the source and are kept apart here.

What was measured:
[1] = target: KRAS WT binding to BRAF RBD (Homo sapiens (Human), UniProt P01116+P62937); assay: Ras-Raf disruption/FRET/MOA assay, KRAS WT; format: biochemical
From the text: Disruption of B-Raf Ras-binding Domain (BRAF^RBD) Interaction with K-Ras by Compounds of the Invention (also called a FRET assay or an MOA assay)
(§1) Note—The following protocol describes a procedure for monitoring disruption of K-Ras G12C(GMP-PNP) binding to BRAF^RBD by a compound of the invention. This protocol may also be executed substituting other Ras proteins or nucleotides.
(§2) The purpose of this biochemical assay was to measure the ability of test compounds to facilitate ternary complex formation between a nucleotide-loaded K-Ras isoform and Cyclophilin A; the resulting ternary complex disrupts binding to a BRAF^RBD construct, inhibiting K-Ras signaling through a RAF effector. Data is reported as IC50 values.
(§3) In assay buffer containing 25 mM HEPES pH 7.3, 0.002% Tween20, 0.1% BSA, 100 mM NaCl and 5 mM MgCl2, tagless Cyclophilin A, His6-K-Ras-GMPPNP, and GST-BRAF^RBD were combined in a 384-well assay plate at final concentrations of 25 μM, 12.5 nM and 50 nM, respectively. Compound was present in plate wells as a 10-point 3-fold dilution series starting at a final concentration of 30 μM. After incubation at 25° C. for 3 hours, a mixture of Anti-His Eu—W1024 and anti-GST allophycocyanin was then added to assay sample wells at final concentrations of 10 nM and 50 nM, respectively, and the reaction incubated for an additional 1.5 hours. […] Compounds that facilitate disruption of a K-Ras: RAF complex were identified as those eliciting a decrease in the TR-FRET ratio relative to DMSO control wells.

[2] = test system: NCI-H358 (K-Ras G12C); assay: CellTiter-Glo cell viability assay, NCI-H358; format: cell-based, human; details: Homo sapiens, NCI-H358, 120 h, 5-day treatment; read-out: H358 Cell Viability assay data (K-Ras G12C, IC50)
Procedure, shortened: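 Viability is measured as ATP-dependent luminescence (CellTiter-Glo) five days into compound treatment. Responses are normalized to vehicle (DMSO) wells and fitted by four-parameter logistic regression.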

[3] = target: NRAS WT binding to BRAF RBD (Homo sapiens (Human), UniProt P01111+P62937); assay: Ras-Raf disruption/FRET/MOA assay, NRAS WT; format: biochemical
Procedure, shortened: (§4)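 Compounds (top 30 μM, 3-fold, 10 points) promote Cyclophilin A (25 μM) ternary complex with His6-Ras-GMPPNP (12.5 nM), disrupting GST-BRAF RBD (50 nM) binding; 3 h, 25°C, 25 mM HEPES pH 7.3, 100 mM NaCl, 5 mM MgCl2. Detection reagents (Eu anti-His 10 nM, APC anti-GST 50 nM) added for 1.5 h; IC50 reported.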

[4] = test system: K-Ras G12C (NCI-H358 cells); assay: Potency assay: pERK in NCI-H358 cells; format: cell-based, human; details: Homo sapiens; NCI-H358 cells, 4 hours; read-out: pERK EC50 (H358 KRAS G12C)
Procedure, shortened: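 Cells plated the day before were exposed for 4 h at 37° C, 5% CO2 to a 10-point, 3-fold DMSO dilution series (10 mM top stock), in duplicate. Phospho-ERK was read by AlphaLISA SureFire Ultra or by In-Cell Western with DRAQ5 DNA stain, and IC50 came from a 4-parameter sigmoidal fit.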

[5] = target: KRAS G12S binding to BRAF RBD (Homo sapiens (Human), UniProt P01116+P62937, G12S); assay: Ras-Raf disruption/FRET/MOA assay, KRAS G12S; format: biochemical
From the text: as §1, §2
(§5) Compound was present in plate wells as a 10-point 3-fold dilution series starting at a final concentration of 30 μM. After incubation at 25° C. for 3 hours, a mixture of Anti-His Eu—W1024 and anti-GST allophycocyanin was then added to assay sample wells at final concentrations of 10 nM and 50 nM, respectively, and the reaction incubated for an additional 1.5 hours. […] Compounds that facilitate disruption of a K-Ras: RAF complex were identified as those eliciting a decrease in the TR-FRET ratio relative to DMSO control wells.

[6] = target: KRAS G12V binding to BRAF RBD (Homo sapiens (Human), UniProt P01116+P62937, G12V); assay: Ras-Raf disruption/FRET/MOA assay, KRAS G12V; format: biochemical; details: read-out: KRAS G12V FRET IC50
From the text: as §1, §2, §5

[7] = target: NRAS Q61R binding to BRAF RBD (Homo sapiens (Human), UniProt P01111+P62937, Q61R); assay: Ras-Raf disruption/FRET/MOA assay, NRAS Q61R; format: biochemical
Sequence of NRAS Q61R binding to BRAF RBD (P01111 whole entry Q61R): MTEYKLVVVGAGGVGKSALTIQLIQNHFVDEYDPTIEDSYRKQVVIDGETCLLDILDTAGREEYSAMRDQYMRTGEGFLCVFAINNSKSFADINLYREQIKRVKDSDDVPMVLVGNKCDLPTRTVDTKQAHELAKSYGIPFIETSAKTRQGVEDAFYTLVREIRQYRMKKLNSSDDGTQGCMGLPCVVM
Sequence of NRAS Q61R binding to BRAF RBD (P62937 whole entry): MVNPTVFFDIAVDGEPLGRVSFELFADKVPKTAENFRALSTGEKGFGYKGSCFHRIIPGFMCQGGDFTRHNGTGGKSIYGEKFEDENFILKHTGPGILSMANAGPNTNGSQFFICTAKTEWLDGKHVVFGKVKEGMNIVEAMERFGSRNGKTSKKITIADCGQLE
Procedure, shortened: as §4

[8] = target: KRAS Q61H binding to BRAF RBD (Homo sapiens (Human), UniProt P01116+P62937, Q61H); assay: Ras-Raf disruption/FRET/MOA assay, KRAS Q61H; format: biochemical
Procedure, shortened: as §4

[9] = target: NRAS Q61K binding to BRAF RBD (Homo sapiens (Human), UniProt P01111+P62937, Q61K); assay: Ras-Raf disruption/FRET/MOA assay, NRAS Q61K; format: biochemical
Sequence of NRAS Q61K binding to BRAF RBD (P01111 whole entry Q61K): as the sequence (P01111 whole entry Q61R) above, with R61K counted along it
Sequence of NRAS Q61K binding to BRAF RBD (P62937 whole entry): as the sequence (P62937 whole entry) above
Procedure, shortened: as §4

[10] = target: K-Ras G12C(GMP-PNP) binding to BRAF RBD (Homo sapiens (Human), UniProt P01116+P62937, G12C); assay: Disruption of BRAF RBD interaction with K-Ras (FRET / MOA assay), K-Ras G12C; format: biochemical; details: read-out: KRAS G12C FRET IC50
Sequence of K-Ras G12C(GMP-PNP) binding to BRAF RBD (P01116 other isoform, or with tags, fused parts or gaps G12C): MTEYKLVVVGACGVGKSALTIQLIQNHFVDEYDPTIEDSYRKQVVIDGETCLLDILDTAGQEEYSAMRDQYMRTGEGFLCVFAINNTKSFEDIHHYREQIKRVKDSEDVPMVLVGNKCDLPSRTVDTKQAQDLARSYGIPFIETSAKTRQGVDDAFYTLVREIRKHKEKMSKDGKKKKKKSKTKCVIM
Sequence of K-Ras G12C(GMP-PNP) binding to BRAF RBD (P62937 whole entry): as the sequence (P62937 whole entry) above
Procedure, shortened: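 Cpd 10-pt 3-fold dilution, top 30 μM final; Ras/CypA/BRAF RBD mix 3 h, 25° C. Add anti-His Eu-W1024 10 nM + anti-GST APC 50 nM final, 1.5 h. Readout TR-FRET ratio decrease vs DMSO → IC50.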

[11] = target: KRAS G13D binding to BRAF RBD (Homo sapiens (Human), UniProt P01116+P62937, G13D); assay: Ras-Raf disruption/FRET/MOA assay, KRAS G13D; format: biochemical
Procedure, shortened: (§6)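 First, test compounds in a 10-point 3-fold series (30 μM final top) were incubated for 3 hours at 25° C with nucleotide-loaded Ras, cyclophilin A and a BRAF RBD construct. Next, Eu anti-His and allophycocyanin anti-GST detection reagents were added for 1.5 hours. Finally, IC50s were derived from loss of TR-FRET signal against DMSO.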

[12] = target: NRAS G12C binding to BRAF RBD (Homo sapiens (Human), UniProt P01111+P62937, G12C); assay: Ras-Raf disruption/FRET/MOA assay, NRAS G12C; format: biochemical
Procedure, shortened: as §6

[13] = target: KRAS G12S (Homo sapiens (Human), UniProt P01116+P62937, G12S); assay: Ras-Raf disruption/FRET/MOA assay, KRAS G12S; format: biochemical
Sequence of KRAS G12S (P01116 other isoform, or with tags, fused parts or gaps G12S): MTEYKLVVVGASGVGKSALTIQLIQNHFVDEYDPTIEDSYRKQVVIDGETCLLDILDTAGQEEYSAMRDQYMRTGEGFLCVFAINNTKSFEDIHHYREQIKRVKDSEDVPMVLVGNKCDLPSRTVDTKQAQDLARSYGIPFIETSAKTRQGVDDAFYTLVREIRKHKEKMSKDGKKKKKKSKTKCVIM
Sequence of KRAS G12S (P62937 whole entry): as the sequence (P62937 whole entry) above
Procedure, shortened: (§7)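 Measured by TR-FRET: a decrease relative to DMSO indicates disruption of GMPPNP-Ras binding to BRAF^RBD, mediated by Cyclophilin A (25 μM). Compound was tested as a dilution series up to 30 μM with 3 h preincubation at 25° C.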

[14] = target: NRAS WT (Homo sapiens (Human), UniProt P01111+P62937); assay: Ras-Raf disruption/FRET/MOA assay, NRAS WT; format: biochemical
Sequence of NRAS WT (P01111 whole entry, the tested form may be a part): as the sequence (P01111 whole entry Q61R) above, with R61Q counted along it
Sequence of NRAS WT (P62937 whole entry, the tested form may be a part): as the sequence (P62937 whole entry) above
From the text: (§8) Disruption of B-Raf Ras-Binding Domain (BRAF^RBD) Interaction with K-Ras by Compounds of the Invention (Also Called a FRET Assay or an MOA Assay)
(§9) Note—The following protocol describes a procedure for monitoring disruption of K-Ras G12C (GMP-PNP) binding to BRAF^RBD by a compound of the invention. This protocol may also be executed substituting other Ras proteins or nucleotides, such as K-Ras G12D and K-Ras G13D.
as §2
as §3, with “12.5 nM,” for “12.5 nM”, “of anti-His” for “of Anti-His”

[15] = target: KRAS WT (Homo sapiens (Human), UniProt P01116+P62937); assay: Ras-Raf disruption/FRET/MOA assay, KRAS WT; format: biochemical
Sequence of KRAS WT (P01116 other isoform, or with tags, fused parts or gaps): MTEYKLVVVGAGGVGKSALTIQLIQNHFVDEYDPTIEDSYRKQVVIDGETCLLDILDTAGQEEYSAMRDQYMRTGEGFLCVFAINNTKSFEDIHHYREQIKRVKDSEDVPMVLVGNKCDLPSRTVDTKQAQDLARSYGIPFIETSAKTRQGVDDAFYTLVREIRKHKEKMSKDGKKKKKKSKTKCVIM
Sequence of KRAS WT (P62937 whole entry): as the sequence (P62937 whole entry) above
Procedure, shortened: as §7

[16] = target: KRAS G13D (Homo sapiens (Human), UniProt P01116+P62937, G13D); assay: Ras-Raf disruption/FRET/MOA assay, KRAS G13D; format: biochemical
Sequence of KRAS G13D (P01116 other isoform, or with tags, fused parts or gaps G13D): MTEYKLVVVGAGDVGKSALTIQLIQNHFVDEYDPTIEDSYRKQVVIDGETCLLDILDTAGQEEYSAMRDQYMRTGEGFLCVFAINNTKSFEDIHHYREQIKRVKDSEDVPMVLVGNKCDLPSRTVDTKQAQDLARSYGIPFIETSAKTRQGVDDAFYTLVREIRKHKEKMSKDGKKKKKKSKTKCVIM
Sequence of KRAS G13D (P62937 whole entry): as the sequence (P62937 whole entry) above
Procedure, shortened: as §7

[17] = target: NRAS G12C (Homo sapiens (Human), UniProt P01111+P62937, G12C); assay: Ras-Raf disruption/FRET/MOA assay, NRAS G12C; format: biochemical
Sequence of NRAS G12C (P01111 whole entry G12C): as the sequence (P01111 whole entry Q61R) above, with G12C, R61Q counted along it
Sequence of NRAS G12C (P62937 whole entry): as the sequence (P62937 whole entry) above
Procedure, shortened: as §7

[18] = target: KRAS G12D (Homo sapiens (Human), UniProt P01116+P62937, G12D); assay: Ras-Raf disruption/FRET/MOA assay, KRAS G12D; format: biochemical
Sequence of KRAS G12D (P01116 other isoform, or with tags, fused parts or gaps G12D): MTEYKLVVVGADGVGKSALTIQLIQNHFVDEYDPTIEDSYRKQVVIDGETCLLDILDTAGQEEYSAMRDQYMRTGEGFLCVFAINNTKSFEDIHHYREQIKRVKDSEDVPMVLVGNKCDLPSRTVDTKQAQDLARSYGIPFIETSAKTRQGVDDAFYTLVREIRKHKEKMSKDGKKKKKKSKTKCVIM
Sequence of KRAS G12D (P62937 whole entry): as the sequence (P62937 whole entry) above
Procedure, shortened: as §7

[19] = target: NRAS Q61R (Homo sapiens (Human), UniProt P01111+P62937, Q61R); assay: Ras-Raf disruption/FRET/MOA assay, NRAS Q61R; format: biochemical
Sequence of NRAS Q61R (P01111 whole entry Q61R): as the sequence (P01111 whole entry Q61R) above
Sequence of NRAS Q61R (P62937 whole entry): as the sequence (P62937 whole entry) above
From the text: as §8, §9, §2
as §3, with “12.5 nM,” for “12.5 nM”, “of anti-His” for “of Anti-His”

[20] = target: KRAS Q61H (Homo sapiens (Human), UniProt P01116+P62937, Q61H); assay: Ras-Raf disruption/FRET/MOA assay, KRAS Q61H; format: biochemical
Sequence of KRAS Q61H (P01116 other isoform, or with tags, fused parts or gaps Q61H): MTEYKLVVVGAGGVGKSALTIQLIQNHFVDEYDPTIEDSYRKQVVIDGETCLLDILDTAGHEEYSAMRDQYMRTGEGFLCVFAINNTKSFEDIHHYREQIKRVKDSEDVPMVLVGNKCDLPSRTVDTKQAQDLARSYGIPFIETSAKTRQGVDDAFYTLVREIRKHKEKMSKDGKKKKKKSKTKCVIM
Sequence of KRAS Q61H (P62937 whole entry): as the sequence (P62937 whole entry) above
From the text: as §8, §9, §2
as §3, with “12.5 nM,” for “12.5 nM”, “of anti-His” for “of Anti-His”

[21] = target: KRAS G12V (Homo sapiens (Human), UniProt P01116+P62937, G12V); assay: Ras-Raf disruption/FRET/MOA assay, KRAS G12V; format: biochemical
Sequence of KRAS G12V (P01116 other isoform, or with tags, fused parts or gaps G12V): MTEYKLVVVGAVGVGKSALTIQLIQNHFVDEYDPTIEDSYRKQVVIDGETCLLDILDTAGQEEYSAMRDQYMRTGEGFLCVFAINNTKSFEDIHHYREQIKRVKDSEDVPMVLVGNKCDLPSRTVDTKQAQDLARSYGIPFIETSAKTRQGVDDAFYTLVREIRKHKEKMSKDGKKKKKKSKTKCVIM
Sequence of KRAS G12V (P62937 whole entry): as the sequence (P62937 whole entry) above
Procedure, shortened: as §7

[22] = target: NRAS Q61K (Homo sapiens (Human), UniProt P01111+P62937, Q61K); assay: Ras-Raf disruption/FRET/MOA assay, NRAS Q61K; format: biochemical
Sequence of NRAS Q61K (P01111 whole entry Q61K): as the sequence (P01111 whole entry Q61R) above, with R61K counted along it
Sequence of NRAS Q61K (P62937 whole entry): as the sequence (P62937 whole entry) above
From the text: as §8, §9, §2
as §3, with “12.5 nM,” for “12.5 nM”, “of anti-His” for “of Anti-His”

[23] = target: KRAS G12C (Homo sapiens (Human), UniProt P01116+P62937, G12C); assay: Ras-Raf disruption/FRET/MOA assay, KRAS G12C; format: biochemical
Sequence of KRAS G12C (P01116-2 other isoform, or with tags, fused parts or gaps G12C): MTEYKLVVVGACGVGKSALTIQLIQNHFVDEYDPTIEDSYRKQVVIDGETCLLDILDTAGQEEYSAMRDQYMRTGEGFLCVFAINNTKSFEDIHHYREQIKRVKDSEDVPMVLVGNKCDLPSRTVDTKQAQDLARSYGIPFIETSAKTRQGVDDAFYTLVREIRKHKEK
Sequence of KRAS G12C (P62937 whole entry): as the sequence (P62937 whole entry) above
Procedure, shortened: as §7

[24] = target: KRAS G13C (Homo sapiens (Human), UniProt P01116+P62937, G13C); assay: Ras-Raf disruption/FRET/MOA assay, KRAS G13C; format: biochemical
Sequence of KRAS G13C (P01116 other isoform, or with tags, fused parts or gaps G13C): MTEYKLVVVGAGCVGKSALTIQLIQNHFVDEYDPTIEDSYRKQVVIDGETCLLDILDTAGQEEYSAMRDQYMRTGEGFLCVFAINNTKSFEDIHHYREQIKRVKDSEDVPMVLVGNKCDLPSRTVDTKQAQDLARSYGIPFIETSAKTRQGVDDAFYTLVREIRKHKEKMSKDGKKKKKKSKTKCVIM
Sequence of KRAS G13C (P62937 whole entry): as the sequence (P62937 whole entry) above
Procedure, shortened: as §7

| Compound | IC50 [13] | IC50 [14] | IC50 [15] | IC50 [16] | IC50 [17] | IC50 [18] | IC50 [19] | IC50 [20] | IC50 [21] | IC50 [22] | IC50 [23] | IC50 [24] | other results |
| --- | --- | --- | --- | --- | --- | --- | --- | --- | --- | --- | --- | --- | --- |
| C=CC(=O)N(C)CC1CCN(C(=O)N(C)[C@H](C(=O)N[C@H]2Cc3nc(cs3)-c3ccc4c(c3)c(c(-c3cccnc3[C@H](C)OC)n4CC)CC(C)(C)COC(=O)[C@@H]3CCCN(N3)C2=O)C(C)C)CC1 (atropisomer, axis not shown) [Compound A629] | – | – | – | – | – | – | – | – | – | – | – | – | IC50 [1]: 10 to 100 nM; IC50 [2]: < 10 nM; IC50 [3]: 10 to 100 nM; EC50 [4]: < 5000 nM; IC50 [5]: 10 to 100 nM; IC50 [6]: 10 to 100 nM; IC50 [7]: 10 to 100 nM; IC50 [8]: 10 to 100 nM; IC50 [9]: 10 to 100 nM; IC50 [10]: 10 to 100 nM; IC50 [11]: 100 to 1000 nM; IC50 [12]: 10 to 100 nM |
| CCn1c(-c2cccnc2[C@H](C)OC)c2c3cc(ccc31)-c1cc(O)cc(c1)C[C@H](NC(=O)[C@H](C(C)C)N(C)C(=O)[C@]13C[C@H]1CCN3C(=O)[C@H]1CN1)C(=O)N1CCC[C@H](N1)C(=O)OCC(C)(C)C2 [Example 244] | 100 to 1000 nM | 100 to 1000 nM | 100 to 1000 nM | 100 to 1000 nM | 10 to 100 nM | 100 to 1000 nM | 100 to 1000 nM | 10 to 100 nM | 100 to 1000 nM | 1000 to 10000 nM | 10 to 100 nM | 100 to 1000 nM | – |
| CCn1c(-c2cccnc2[C@H](C)OC)c2c3cc(ccc31)-c1cc(O)cc(c1)C[C@H](NC(=O)[C@H](C(C)C)N(C)C(=O)[C@@H]1CO[C@H](C)CN1C(=O)[C@H]1CN1)C(=O)N1CCC[C@H](N1)C(=O)OCC(C)(C)C2 [Example 248] | 10 to 100 nM | 10 to 100 nM | 10 to 100 nM | 10 to 100 nM | 10 to 100 nM | 10 to 100 nM | 100 to 1000 nM | 10 to 100 nM | 10 to 100 nM | 100 to 1000 nM | 10 to 100 nM | 10 to 100 nM | – |
| CCn1c(-c2cccnc2[C@H](C)OC)c2c3cc(ccc31)-c1cc(O)cc(c1)C[C@H](NC(=O)[C@H](C(C)C)N(C)C(=O)[C@H]1CCCN(C(=O)[C@@H]3CN3)C1)C(=O)N1CCC[C@H](N1)C(=O)OCC(C)(C)C2 (atropisomer, axis not shown) [Example 238] | – | – | – | – | – | – | – | – | – | – | – | – | IC50 ([14]; read-out: NRAS WT FRET IC50): 10 to 100 nM; IC50 ([19]; read-out: NRAS Q61R FRET data IC50): 100 to 1000 nM; IC50 ([22]; read-out: NRAS Q61K FRET data IC50): 100 to 1000 nM |
